Activity calls are given as the source filed them.
Assays:
Cytochrome P450 2C9 = Cytochrome P450 2C9 (Homo sapiens, UniProt P11712)
cells = assay type: functional
Cytochrome P450 1A2 = target: T1, Cytochrome P450 1A2 (Homo sapiens, UniProt P05177);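 also: PubChem cytochrome P450 panel assay, CYP1A2 panel member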
T1 sequence (P05177 whole entry): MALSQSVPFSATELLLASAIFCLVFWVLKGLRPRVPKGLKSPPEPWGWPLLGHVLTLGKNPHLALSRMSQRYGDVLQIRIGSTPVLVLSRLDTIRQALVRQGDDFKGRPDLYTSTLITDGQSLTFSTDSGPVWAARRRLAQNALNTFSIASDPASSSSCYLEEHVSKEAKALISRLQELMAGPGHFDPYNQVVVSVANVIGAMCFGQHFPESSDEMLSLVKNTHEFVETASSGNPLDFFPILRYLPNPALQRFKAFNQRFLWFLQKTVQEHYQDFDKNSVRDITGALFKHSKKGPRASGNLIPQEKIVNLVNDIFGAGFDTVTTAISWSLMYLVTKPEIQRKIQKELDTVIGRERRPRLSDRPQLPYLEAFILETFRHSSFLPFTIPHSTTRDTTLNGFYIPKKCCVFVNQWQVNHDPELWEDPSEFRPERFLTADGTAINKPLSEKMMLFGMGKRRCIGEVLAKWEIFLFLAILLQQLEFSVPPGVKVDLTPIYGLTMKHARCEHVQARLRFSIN

Cytochrome P450 3A4 = Cytochrome P450 3A4 (Homo sapiens, UniProt P08684);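 also: CYP3A4 tested as one member of a cytochrome P450 panel screen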
Cytochrome P450 2C19 = Cytochrome P450 2C19 (Homo sapiens, UniProt P33261); assay: Cytochrome panel assay with activity outcomes. Panel member name: p450-cyp2c19 Compounds with AC50 equal or less than 10 uM are considered active; assay type: functional
[1] = viability of uninfected HEp-2 cells – cell-based, HTS, cytotoxicity control for RSV inhibitor project, dose response (AID 2410); assay type: functional; conditions: human respiratory syncytial virus
H4 = assay: Luminescence Cell-Based Dose Response HTS to Identify Activators of 5'UTR Stem-Loop Driven Prion Protein mRNA Translation in H4 Neuroglioblastoma Cells. [Related pubchem assays: 1829 (Project Summary), 1814 (Primary HTS)]; assay type: functional; conditions: Homo sapiens
Cytochrome P450 2D6 = Cytochrome P450 2D6 (Homo sapiens, UniProt P10635);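 also: CYP2D6 member of a cytochrome P450 panel assay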
[2] = Luminescence Cell-Based Dose Response HTS to Identify Activators of Luciferase Translation or Activity in H4 […] Cells. [Related pubchem assays: 1829 (Project Summary), 1814 (Primary HTS)]; assay type: functional
[3] = target: T2, Corticotropin-releasing factor receptor 2/Corticotropin-releasing factor-binding protein (Homo sapiens, UniProt P24387+Q13324); assay: activators of CRF receptor 2 with binding protein – uHTS hits, confirmation (AID 602473); assay type: functional; conditions: read-out: EC50_Mean
T2 sequence (Q13324 whole entry): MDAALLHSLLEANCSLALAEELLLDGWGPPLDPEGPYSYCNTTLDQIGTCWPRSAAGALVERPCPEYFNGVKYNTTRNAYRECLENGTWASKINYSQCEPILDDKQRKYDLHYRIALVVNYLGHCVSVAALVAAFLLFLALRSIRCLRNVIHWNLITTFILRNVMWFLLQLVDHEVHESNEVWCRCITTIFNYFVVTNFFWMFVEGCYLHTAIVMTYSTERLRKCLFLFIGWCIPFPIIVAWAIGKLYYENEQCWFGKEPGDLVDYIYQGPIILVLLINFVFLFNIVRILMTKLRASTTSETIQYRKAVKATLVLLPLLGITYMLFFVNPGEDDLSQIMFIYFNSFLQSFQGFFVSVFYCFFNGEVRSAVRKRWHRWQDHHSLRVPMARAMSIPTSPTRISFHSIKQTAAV
T2 sequence (P24387 whole entry): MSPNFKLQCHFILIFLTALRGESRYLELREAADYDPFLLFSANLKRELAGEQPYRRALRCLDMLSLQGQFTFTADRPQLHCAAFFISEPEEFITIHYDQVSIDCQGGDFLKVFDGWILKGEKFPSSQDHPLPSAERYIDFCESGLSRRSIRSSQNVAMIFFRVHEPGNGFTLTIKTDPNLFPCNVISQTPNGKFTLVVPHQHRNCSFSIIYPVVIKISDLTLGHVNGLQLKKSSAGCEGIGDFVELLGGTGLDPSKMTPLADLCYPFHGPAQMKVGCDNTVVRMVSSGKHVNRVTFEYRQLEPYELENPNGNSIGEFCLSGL

Chain of Cytochrome P450 2C9 (P11712 whole entry): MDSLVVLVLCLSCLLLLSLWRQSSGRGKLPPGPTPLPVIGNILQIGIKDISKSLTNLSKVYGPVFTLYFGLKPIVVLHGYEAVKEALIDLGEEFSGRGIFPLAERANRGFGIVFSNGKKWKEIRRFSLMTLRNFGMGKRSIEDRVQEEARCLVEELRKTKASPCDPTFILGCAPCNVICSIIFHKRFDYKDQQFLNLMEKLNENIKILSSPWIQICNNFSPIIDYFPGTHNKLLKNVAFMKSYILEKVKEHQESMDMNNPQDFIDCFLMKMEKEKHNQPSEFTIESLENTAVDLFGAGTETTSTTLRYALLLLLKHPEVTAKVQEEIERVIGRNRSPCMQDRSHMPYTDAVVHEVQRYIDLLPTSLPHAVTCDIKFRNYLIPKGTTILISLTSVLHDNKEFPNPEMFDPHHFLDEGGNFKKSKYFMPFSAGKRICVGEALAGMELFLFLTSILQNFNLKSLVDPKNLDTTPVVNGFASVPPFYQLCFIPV
Chain of Cytochrome P450 2C19 (P33261 whole entry): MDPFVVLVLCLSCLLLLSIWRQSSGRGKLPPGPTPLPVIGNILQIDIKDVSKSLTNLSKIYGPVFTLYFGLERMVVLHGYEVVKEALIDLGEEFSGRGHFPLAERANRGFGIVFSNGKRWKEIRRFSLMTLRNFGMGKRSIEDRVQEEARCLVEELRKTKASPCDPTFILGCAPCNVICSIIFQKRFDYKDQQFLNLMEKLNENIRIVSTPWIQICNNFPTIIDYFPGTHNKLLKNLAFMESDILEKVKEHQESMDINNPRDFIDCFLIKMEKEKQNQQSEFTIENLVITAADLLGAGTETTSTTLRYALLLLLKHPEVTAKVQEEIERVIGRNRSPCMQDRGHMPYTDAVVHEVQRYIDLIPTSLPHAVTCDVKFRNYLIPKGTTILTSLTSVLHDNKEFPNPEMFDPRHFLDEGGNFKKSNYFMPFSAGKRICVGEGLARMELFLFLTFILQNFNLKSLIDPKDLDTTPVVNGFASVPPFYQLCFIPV
Chain of Cytochrome P450 3A4 (P08684 whole entry): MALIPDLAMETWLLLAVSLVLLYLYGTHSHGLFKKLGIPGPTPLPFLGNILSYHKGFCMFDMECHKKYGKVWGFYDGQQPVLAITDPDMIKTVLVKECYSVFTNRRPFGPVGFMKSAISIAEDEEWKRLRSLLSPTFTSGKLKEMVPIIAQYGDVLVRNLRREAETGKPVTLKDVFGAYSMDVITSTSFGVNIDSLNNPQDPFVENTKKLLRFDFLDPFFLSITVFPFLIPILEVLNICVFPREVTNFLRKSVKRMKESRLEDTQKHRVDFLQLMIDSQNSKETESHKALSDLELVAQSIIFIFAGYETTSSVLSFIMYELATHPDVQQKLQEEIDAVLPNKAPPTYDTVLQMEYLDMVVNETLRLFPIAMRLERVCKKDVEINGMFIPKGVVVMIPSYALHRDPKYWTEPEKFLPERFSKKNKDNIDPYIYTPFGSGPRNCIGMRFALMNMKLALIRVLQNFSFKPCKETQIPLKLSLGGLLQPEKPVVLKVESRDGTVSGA
Chain of Cytochrome P450 2D6 (P10635 whole entry): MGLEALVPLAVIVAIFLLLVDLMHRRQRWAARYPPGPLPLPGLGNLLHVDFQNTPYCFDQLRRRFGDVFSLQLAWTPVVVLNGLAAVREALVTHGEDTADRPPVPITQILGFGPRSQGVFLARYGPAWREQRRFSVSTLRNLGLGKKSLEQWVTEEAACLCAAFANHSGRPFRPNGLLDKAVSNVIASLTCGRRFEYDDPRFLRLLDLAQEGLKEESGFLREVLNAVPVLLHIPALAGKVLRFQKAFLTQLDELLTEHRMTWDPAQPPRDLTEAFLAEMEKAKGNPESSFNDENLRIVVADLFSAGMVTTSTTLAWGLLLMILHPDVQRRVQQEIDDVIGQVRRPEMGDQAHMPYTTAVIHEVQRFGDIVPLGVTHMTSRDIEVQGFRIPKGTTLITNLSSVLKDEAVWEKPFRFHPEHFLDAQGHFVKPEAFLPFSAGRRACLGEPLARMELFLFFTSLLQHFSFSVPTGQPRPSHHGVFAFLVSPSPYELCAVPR

## CCC(=O)n1nc(-c2ccc(OC)cc2)nc1N
Cytochrome P450 2C9
  AC50: 0.0562 µM (inconclusive)

## OC(COc1ccccc1Cl)CN1CCN(CC(O)COc2ccccc2Cl)CC1 (stereo unspecified)
cells
  IC50: 17.3 µM (active)

## CCOC(=O)c1nnn(-c2nc(OC)nc(N3CCCCC3)n2)c1-c1ccccc1
Cytochrome P450 1A2
  AC50: 14.1 µM (inconclusive)
Cytochrome P450 2C9
  AC50: 28.2 µM (inconclusive)

## O=C(CN1C(=O)c2cccc3cccc(c23)C1=O)N1CCCCCC1
Cytochrome P450 2C9
  AC50: 22.4 µM (inconclusive)

## CNc1nc(-c2ccccc2OC)nc2ccccc12
Cytochrome P450 3A4
  AC50: 31.6 µM (inconclusive)
Cytochrome P450 2C19
  AC50: inconclusive

## N#Cc1ccc(OCC(=O)Nc2ccncc2)cc1
[1]
  CC50: 14.7 µM (active)

## CCOc1ccc(C(C)=O)cc1N1C(=O)C2C3C=CC(C3=C(C)C)C2C1=O (stereo unspecified)
Cytochrome P450 1A2
  AC50: 0.0631 µM (inconclusive)
Cytochrome P450 2C9
  AC50: 5.62 µM (inconclusive)
Cytochrome P450 2C19; read-out: AC50
  AC50: 25.1 µM (inconclusive)

## COc1ccc(CCNC(=O)c2ccc3c(c2)OCCO3)cc1
H4
  EC50: 66.7 µM (active)

## CCOc1ccc2[nH]c3ccc4nonc4c3c2c1
[1]
  CC50: > 50 µM (active)

## COc1ccc(-c2c(C)c3ccc(O)cc3oc2=O)cc1
[1]
  CC50: 20.9 µM (active)

## COc1cc([C@H](O)CO)ccc1O
Cytochrome P450 3A4
  AC50: 0.0316 µM (inconclusive)

## Cc1nc(NC(=O)CSc2cc(C)c3ccccc3n2)c(Cl)cc1Cl
[1]
  CC50: > 50 µM (active)

## CCNc1oc(-c2cccc3ccccc23)nc1C#N
[1]
  CC50: > 50 µM (active)

## CCn1c(-c2ccc(-c3ccccc3)cc2)cnc1S
[1]
  CC50: 18.9 µM (active)

## OC(CNCCc1ccc(Cl)cc1)COc1cc(Cl)ccc1Cl (stereo unspecified)
[1]
  CC50: 15.6 µM (active)

## CCc1cc2c(nc1CC)CCN(CC/C(C)=N/OC[C@H]1O[C@H](c3ccccc3)C=C[C@@H]1Oc1ccc(OC)cc1)C2
Cytochrome P450 2C9
  AC50: 6.31 µM (inconclusive)
Cytochrome P450 2D6
  AC50: 6.31 µM (inconclusive)
Cytochrome P450 3A4
  AC50: 6.31 µM (inconclusive)

## CCCCOc1ccc(S(=O)(=O)NNC(=O)C2Cc3c(ccc4ccccc34)O2)cc1 (stereo unspecified)
[1]
  CC50: 27.1 µM (active)

## N=C(NOC(=O)c1ccco1)c1ccccc1
H4
  EC50: > 120 µM (not active)
[2]
  EC50: 47.4 µM (active)

## CC(C)OC(=O)CSc1nc(-c2ccc(F)cc2)nc2ccc(F)cc12
Cytochrome P450 2C9
  AC50: 0.0178 µM (inconclusive)
Cytochrome P450 2C19; read-out: AC50
  AC50: 0.112 µM (inconclusive)

## C[C@](O)(C(=O)Nc1ccc(S(=O)(=O)c2ccccc2)cc1)C(F)(F)F
Cytochrome P450 1A2
  AC50: 39.8 µM (inconclusive)
Cytochrome P450 2D6
  AC50: 31.6 µM (inconclusive)
Cytochrome P450 3A4
  AC50: 31.6 µM (inconclusive)
Cytochrome P450 2C19; read-out: AC50
  AC50: 6.31 µM (inconclusive)

## COc1ccc(-c2[nH]ncc2CN2CCCCCCC2)c(OC)c1
cells
  IC50: 18.5 µM (active)

## Cc1ccc(S(=O)(=O)N(C)CC(=O)NCCCc2ccccc2)cc1
[3]
  EC50: > 53 µM (inactive)

## O=C(NC(C(=O)N/N=C/c1ccccc1)c1nnc(O)c2ccccc12)c1ccccc1 (stereo unspecified)
[3]
  EC50: 5.14 µM (active)

## O=C(N/N=C/c1ccc(Br)s1)c1ccncc1
cells
  IC50: < 0.1 µM (active)

## COc1ccc(CCNc2cc(-c3ccccc3)nc3ncnn23)cc1
cells
  IC50: 2.48 µM (active)

Source: ChEMBL document CHEMBL1201862, “PubChem BioAssay data set” (2004)
